The text below walks through data of article PMC5131310, “Discovery of piperonal-converting oxidase involved in the metabolism of a botanical aromatic aldehyde” (Scientific Reports, 2016).

This assay has as its target T1, piperonal-converting enzyme (PceSML), FAD site on PceM (Burkholderia sp. CT39-3, UniProt A0A1L7N251).
T1 construct: same recombinant complex as P1 (N-terminal His tag on PceS, host Burkholderia sp. CT39-3); with Piperonal-converting enzyme large subunit (PceL); Piperonal-converting enzyme small subunit (PceS)
T1 sequence (A0A1L7N251 1-334): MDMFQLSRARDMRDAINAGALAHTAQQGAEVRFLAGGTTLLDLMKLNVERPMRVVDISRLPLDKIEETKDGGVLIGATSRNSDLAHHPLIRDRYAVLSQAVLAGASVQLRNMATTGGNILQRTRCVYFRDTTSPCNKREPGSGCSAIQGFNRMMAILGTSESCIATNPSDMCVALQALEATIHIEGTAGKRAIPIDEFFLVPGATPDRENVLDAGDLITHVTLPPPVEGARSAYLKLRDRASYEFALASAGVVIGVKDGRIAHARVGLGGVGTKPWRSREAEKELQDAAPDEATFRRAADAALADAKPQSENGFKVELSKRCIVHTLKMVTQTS
T1 sequence (A0A1L7N257 1-740 partner): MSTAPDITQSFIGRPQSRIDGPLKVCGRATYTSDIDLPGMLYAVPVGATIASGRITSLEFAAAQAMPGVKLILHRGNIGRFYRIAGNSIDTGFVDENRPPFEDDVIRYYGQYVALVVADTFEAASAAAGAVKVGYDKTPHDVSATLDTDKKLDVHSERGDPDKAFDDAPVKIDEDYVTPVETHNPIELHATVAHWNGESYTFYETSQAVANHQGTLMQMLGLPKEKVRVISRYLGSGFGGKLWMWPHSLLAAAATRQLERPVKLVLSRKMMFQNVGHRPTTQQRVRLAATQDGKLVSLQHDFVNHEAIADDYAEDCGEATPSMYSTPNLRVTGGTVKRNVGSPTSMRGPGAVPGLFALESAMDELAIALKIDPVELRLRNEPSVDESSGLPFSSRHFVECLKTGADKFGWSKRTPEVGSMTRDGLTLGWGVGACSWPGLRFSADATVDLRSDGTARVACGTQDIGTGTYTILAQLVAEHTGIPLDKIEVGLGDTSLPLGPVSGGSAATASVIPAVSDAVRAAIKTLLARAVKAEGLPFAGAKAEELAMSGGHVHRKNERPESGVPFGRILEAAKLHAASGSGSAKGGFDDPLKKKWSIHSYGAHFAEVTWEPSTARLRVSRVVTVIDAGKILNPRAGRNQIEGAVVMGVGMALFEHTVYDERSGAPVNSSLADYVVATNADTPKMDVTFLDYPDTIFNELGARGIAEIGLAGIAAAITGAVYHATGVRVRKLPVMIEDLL
T1 sequence (A0A1L7N258 1-185 partner): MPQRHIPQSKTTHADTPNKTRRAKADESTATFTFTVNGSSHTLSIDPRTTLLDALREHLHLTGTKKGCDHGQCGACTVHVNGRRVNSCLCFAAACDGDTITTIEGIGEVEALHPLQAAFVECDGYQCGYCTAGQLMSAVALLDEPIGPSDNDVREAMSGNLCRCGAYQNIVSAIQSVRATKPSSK
The experiment in a line: HPLC of flavin released from purified enzyme by HClO4. The assay is classed as binding. As to conditions: as-purified cofactor.

As to `Cc1cc2nc3c(=O)[nH]c(=O)nc-3n(C[C@H](O)[C@H](O)[C@H](O)COP(=O)(O)OP(=O)(O)OC[C@H]3O[C@@H](n4cnc5c(N)ncnc54)[C@H](O)[C@@H]3O)c2cc1C` [FAD], the “HPLC of flavin released from purified enzyme by HClO4” value is “FAD was identified as the flavin cofactor (Fig. 3A)”.
